Series [1] in a line: First in human single ascending dose and food effect PK study of JOTROL, plasma. Conditions: for Tmax / AUC(0-t) / half-life / AUC(0-inf) / k el / Cmax: both, human; for AUC(0-inf): AUC0-inf; for k el: Kel. Here is the method:
A total of 24 healthy, adult male or female volunteers were included in study part 1. […] A food effect arm was also included as part 2. […] Given that the in life portion of the study was done during the pandemic, total number, gender, ethnicity, etc., of the subjects was not mandated. A total of 4 study periods were included in this study with washout of at least 14 days between doses. […] After the completion of each cohort, an evaluation of the safety data was performed prior to determining whether to proceed with enrollment for the next scheduled dose level, to modify the dose, or to discontinue the study. […] The aliquots were transferred to a - 80 °C freezer (no more than 60 min passed between the start of centrifugation and aliquot storage), pending analysis/shipment to the analytical facility. […] Samples are extracted by a protein precipitation extraction procedure, and the compounds are detected and quantified by tandem mass spectrometry in positive ion mode on an MDS Sciex API 6500+ equipped with a Turbo Ionspray® interface. […] All concentration values that were below the lower limit of quantification (BLQ) occurring prior to dosing as well as samples with no reportable value (NRV) occurring prior to dosing were replaced by “0.00”; otherwise, they (BLQ and NRV) were set to missing for tabulation, graphical representation, and calculation purposes. PK analyses were performed using Phoenix WinNonlin® version 8.2, which was validated by Syneos Health. The WinNonlin noncompartmental analysis (NCA) module was used [NT]0-t (last detectable concentration), AUC0-inf (infinity), residual area (%), Cmax, Tmax, T1/2 el (elimination half-life), and Kel (elimination rate constant). […] Power model included the PK parameter as the response variable and dose (mg) as the explanatory variable. For this model, the variable dose was treated as a continuous variable. For evaluation of the food-effect, PK data (ln-transformed AUC0-t, AUC0-inf, Cmax and untransformed Tmax) reported under fed conditions (Period 4) and under fasting conditions (for the same dose level) were compared using analysis of variance (ANOVA) from SAS®. The ratio (fed/fasting) and 90% geometric CI were also calculated for AUC0-t, AUC0-inf, and Cmax.

The nature of series [2]: First in human PK study of JOTROL, urine excretion. Conditions: for CL renal: human, urine. In kind it is in vivo. The protocol: For day 2 (24 h post-dose) urine collection, subjects were asked to void their bladder within 15 min before the end of the collection interval (12–24 h). For other collections, subjects were asked to void their bladder within 10 min before the end of each collection interval. Urine voided at the intersection of two intervals was included in the earlier interval. Any urine voided by subjects but not collected was documented.
The volume of urine collected in each interval was measured (individual urine volumes are on file), and two aliquots of equal volume were dispensed into polypropylene tubes for each interval. Aliquots were stored in a − 80 °C freezer, pending analysis; remaining urine from each subject was discarded.

For series [3] the following is noted: cited from earlier work.
Where [4] appears, read: plasma, po, 200 mg, resveratrol in plasma, mean, Treatment A: JOTROL 200 mg single oral dose, fasting.
The mark [5] stands for this setting: plasma, po, 500 mg, resveratrol in plasma, mean, Treatment B: JOTROL 500 mg single oral dose, fasting.
Setting [6] is: plasma, po, 500 mg, resveratrol in plasma, mean, Treatment D: JOTROL 500 mg single oral dose, fed (high-fat meal).
The mark [7] stands for this setting: plasma, po, 700 mg, resveratrol in plasma, mean, Treatment C: JOTROL 700 mg single oral dose, fasting.
[8] abbreviates: 500 mg caplets, 5 g, mean ± SD, ref Boocock et al. ([2007]).
Where [9] appears, read: 500 mg caplets, 5 g, mean ± SD, ref Brown et al. ([2010]).
Setting [10] is: Friedreich's ataxia study, ref Yiu et al. ([2015]).

The source of these data is publication PMC9243782 (Aaps Open, 2022).

Read-outs that look alike come from different tables or passages of the source. A value given as a limit tells only on which side of the number the result lay.

Broadly, the half-life is how long it takes for the measured level to halve. A higher half-life goes with slow loss. The AUC is concentration integrated over time. Consider `Oc1ccc(/C=C/c2cc(O)cc(O)c2)cc1` [Resveratrol, 3,5,4′-stilbenotriol], for which the “Delay of the peak concentration by food” value in series [1] (JOTROL 500 mg fed vs fasting) is reported as “approximately 30 min”. Further, in series [1] (JOTROL 200, 500, 700 mg fasting), the “Dose proportionality of AUC0-t and Cmax (power model)” value is reported as “higher than expected if dose proportional”. Besides, the “Gender differences in the exposure of resveratrol” value in series [1] (all JOTROL doses, p = 0.011) is recorded as “mean female AUC values tend to be higher than male values”. The Tmax was 1 h in series [1] (in vivo, po, 500 mg); approximately 1 h in series [1] (plasma, oral); 0.999 h in series [1] (plasma, po, 200 mg); 1.02 h in series [1] (plasma, po, 700 mg). For the same compound, the AUC(0-t) in series [1] (plasma, oral, Mean AUC0-t, range over doses, resveratrol in plasma, JOTROL 200 to 700 mg, fasting) is 149 to 886 ng·h/mL; in series [1] (plasma, po, 200 mg, AUC0-t, resveratrol in plasma, mean, Treatment A: JOTROL 200 mg single oral dose, fasting), 149 ng·h/mL; in series [1] (plasma, po, 500 mg, AUC0-t, resveratrol in plasma, mean, Treatment B: JOTROL 500 mg single oral dose, fasting), 480 ng·h/mL; in series [1] (plasma, po, 500 mg, AUC0-t, resveratrol in plasma, mean, Treatment D: JOTROL 500 mg single oral dose, fed (high-fat meal)), 306 ng·h/mL; in series [1] (plasma, po, 700 mg, AUC0-t, resveratrol in plasma, mean, Treatment C: JOTROL 700 mg single oral dose, fasting), 886 ng·h/mL. The half-life in series [1] (plasma, oral, T½, resveratrol in plasma after JOTROL, N low, interpret with caution) was approximately 2 h; in series [1] (plasma, po, 200 mg, T1/2 el, resveratrol in plasma, mean, Treatment A: JOTROL 200 mg single oral dose, fasting), 1.26 h; in series [1] (plasma, po, 500 mg, T1/2 el, resveratrol in plasma, mean, Treatment B: JOTROL 500 mg single oral dose, fasting), 2.74 h; in series [1] (plasma, po, 500 mg, T1/2 el, resveratrol in plasma, mean, Treatment D: JOTROL 500 mg single oral dose, fed (high-fat meal)), 1.71 h; in series [1] (plasma, po, 700 mg, T1/2 el, resveratrol in plasma, mean, Treatment C: JOTROL 700 mg single oral dose, fasting), 1.6 h. Also, the AUC(0-inf) turned out to be 215 ng·h/mL in series [1] (setting [4]), 574 ng·h/mL in series [1] (setting [5]), 613 ng·h/mL in series [1] (setting [6]) and 611 ng·h/mL in series [1] (setting [7]). Besides, the k el in series [1] (setting [4]) was 0.000153 s⁻¹; in series [1] (setting [5]), 9.22e-05 s⁻¹; in series [1] (setting [6]), 0.000152 s⁻¹; in series [1] (setting [7]), 0.000126 s⁻¹. The Cmax in series [1] (plasma, po, 500 mg, Cmax, resveratrol in plasma, mean, Treatment B: JOTROL 500 mg single oral dose, fasting) was 455 ng/mL; in series [1] (plasma, po, 700 mg, Cmax, resveratrol in plasma, mean, Treatment C: JOTROL 700 mg single oral dose, fasting), 805 ng/mL; in series [3] (25 mg (overnight fast +3 h), radiolabeled dose, ref Walle et al. ([2004])) it was less than 5 ng/mL; in series [3] (setting [8]), 538 ± 391 ng/mL; in series [3] (setting [9]) it was 967 ± 517 ng/mL; in series [3] (1 g encapsulated dose, ref Turner et al., Neurology 85:1383-91, 2015) it was 85 ng/mL. Also, the Cmax was 85 ± 184 ng/mL in series [3] (2 g, 500 mg encapsulated, mean ± SD, ref Turner et al. ([2015])) and 1942 ng/mL in series [3] (2.5 g micronized dose, ref Howells et al., Cancer Prev Res (Phila) 4:1419-1425, 2011). In addition, the “Residual Area” value in series [1] (resveratrol in plasma, mean, Treatment D: JOTROL 500 mg single oral dose, fed (high-fat meal)) turned out to be 3.7%. For the same compound, the CL renal is 2.33 to 4.17 mL/min in series [2] (oral, resveratrol after JOTROL 200 to 700 mg, read-out: Renal clearance, range over treatments); approximately 4 mL/min in series [2] (oral, resveratrol after JOTROL, conversion of 0.14 to 0.25 L/h, read-out: Renal clearance); 4.17 mL/min in series [2] (po, 200 mg, resveratrol renal clearance, mean, Treatment A: JOTROL 200 mg single oral dose, fasting, read-out: CLR (converted)); 2.33 mL/min in series [2] (po, 500 mg, resveratrol renal clearance, mean, Treatment B: JOTROL 500 mg single oral dose, fasting, read-out: CLR (converted)); 3.17 mL/min in series [2] (po, 700 mg, resveratrol renal clearance, mean, Treatment C: JOTROL 700 mg single oral dose, fasting, read-out: CLR (converted)). In series [2] (resveratrol after JOTROL), the “Renal clearance as share of GFR” value was 3 % of GFR. In series [2] (resveratrol in urine, mean, Treatment A: JOTROL 200 mg single oral dose, fasting), this compound came in with a TRmax of 1.5 h. Moreover, the AUC is 1319 ± 780 ng·h/mL in series [3] (500 mg caplets, 5 g, AUC to infinity, mean ± SD, ref Boocock et al. ([2007])) and 4097 ± 4384 ng·h/mL in series [3] (setting [9]). Moreover, the t1/2 in series [3] (setting [8]) is 8.5 ± 8.2 h; in series [3] (setting [9]) it was 7.85 ± 1.97 h; in series [3] (2 g, 500 mg encapsulated, ref Turner et al. ([2015])), 15 h. The “AUC exposure (estimated)” value in series [3] (3,000 mg/day of unmodified resveratrol, healthy volunteers, ref published data) is 2100 ng·h/mL. Besides, in series [3] (Alzheimer's trial, ref Turner et al. [2015], Moussa et al. [2017], Sawda et al. [2017]), the “Plasma Cmax associated with positive biomarker outcomes (amyloid beta, inflammation modulators)” value is 85 ng/mL. Further, the “Nominal mean plasma Cmax not associated with any efficacy” value in series [3] (setting [10]) is 128 ng/mL. Also, in series [3] (setting [10]), the “Nominal plasma mean Cmax associated with positive clinical outcomes” value is 261 ng/mL.
For the compound `Oc1ccc(/C=C/c2cc(O)cc(O)c2)cc1` [micronized resveratrol], the Absorption in series [3] (human, in vivo, po) was ~ 70%.
As to `O=S(=O)(O)Oc1cc(O)cc(C=Cc2ccc(O)cc2)c1` [resveratrol-3-sulfate], the “Effect of food consumption on metabolite concentrations” value in series [1] (JOTROL 500 mg fed vs fasting) is on record as “significantly decreased”. Moreover, in series [1] (plasma, oral, Mean AUC0-t, range over doses, metabolite in plasma, increasing JOTROL (resveratrol) doses), the AUC(0-t) lay in the range of 12000 to 54500 ng·h/mL. Further, in series [1] (plasma, oral, Mean Cmax, range over doses, metabolite in plasma, increasing JOTROL (resveratrol) doses), the Cmax fell in the range of 6620 to 23600 ng/mL.
